What is called IC50 is the concentration at which inhibition is half-maximal.

Molecules are shown by their SMILES. Values joined by “and” are separate entries in the source; they are usually repeats but may differ in a detail not shown here. Identical values can stand only once.

Consider 31 molecules from patent US12240846B2 (Enliven Inc., priority 2020, dated 2025).

The target of one assay is T1, ABL1 (Homo sapiens, UniProt P00519).
T1 construct: purchased Carna Biosciences
The assay can be described thus: Luminescence-based ABL kinase assay (300 μM ATP), ADP-Glo. Type of assay: biochemical. The source says:
Compounds were serially diluted in DMSO. […] Luminescence signal positively correlates with kinase activity.

Another assay has as its target ABL1 (T315I) (Homo sapiens, UniProt P00519, T315I). Described as above. Format: biochemical.

`COc1ccccc1-c1cc2cc(NC(=O)[C@H]3C[C@H]3CN3CCN(C)CC3)ncc2n1C` (relative stereo) [Compound 40, cis-N-(2-(2-methoxyphenyl)-1-methyl-1H-pyrrolo[2,3-c]pyridin-5-yl)-2-((4-methylpiperazin-1-yl)methyl)cyclopropane-1-carboxamide]: the 50% inhibitory concentration (IC50) against ABL1 amounted to 113 nM; at ABL1 (T315I), 145 nM.
On the same counts, the results for `COc1ccccc1-c1cc2cc(NC(=O)[C@H]3C[C@H]3CN3CCOCC3)ncc2n1C` (relative stereo) [Compound 41, cis-N-(2-(2-methoxyphenyl)-1-methyl-1H-pyrrolo[2,3-c]pyridin-5-yl)-2-(morpholinomethyl)cyclopropane-1-carboxamide] are 324 nM and 212 nM.
On the same counts, the results for `COc1ncc(F)c(OC)c1-c1cc2cc(NC(=O)[C@H]3C[C@@H]3CN(C)C)ncc2n1C` (single isomer, unassigned) [Compound 131] are 78.3 nM and 78.3 nM.
For `COc1ccnc(OC)c1-c1cc2cc(NC(=O)[C@@H]3C[C@H]3CN3CCNCC3)ncc2n1C` (single isomer, unassigned) [Compound 139] the same measures were 48.6 nM and 85.9 nM.
Consider `COc1ccnc(OC)c1-c1cc2cc(NC(=O)[C@H]3C[C@@H]3CN3CC4CC(C3)N4)ncc2n1C` (single isomer, unassigned) [Example 135, Enantiomer 1], for which the IC50 at ABL1 was 30 nM; against ABL1 (T315I), 66.7 nM.
For `COc1ccnc(OC)c1-c1cc2cc(NC(=O)[C@@H]3C[C@H]3CN3CC4CC(C3)N4)ncc2n1C` (single isomer, unassigned) [Example 135, Enantiomer 2] the same measures were 10.6 nM and 26 nM.
As for `Cn1c(-c2ccccc2OCCO)cc2cc(NC(=O)C3CC3)ncc21` [Compound 4, N-[2-[2-(2-hydroxyethoxy)phenyl]-1-methylpyrrolo[2,3-c]pyridin-5-yl]cyclopropanecarboxamide], the values for the IC50 at ABL1 and against ABL1 (T315I) were 817 nM and 599 nM, respectively.
Consider `Cc1c(-c2cc3cc(NC(=O)C4CC4)ncc3n2C)ccc2c1CCN2` [Compound 13, N-[1-methyl-2-(4-methyl-2,3-dihydro-1H-indol-5-yl)pyrrolo[2,3-c]pyridin-5-yl]cyclopropanecarboxamide], for which the IC50 against ABL1 came out at 567 nM; at ABL1 (T315I) it was 300 nM.
For `Cc1cc2[nH]ccc2cc1-c1cc2cc(NC(=O)C3CC3)ncc2n1C` [Compound 14, N-(1-methyl-2-(6-methyl-1H-indol-5-yl)-1H-pyrrolo[2,3-c]pyridin-5-yl)cyclopropanecarboxamide] the same measures were 29.6 nM and 124 nM.
For `Cc1c(-c2cc3cc(NC(=O)C4CC4)ncc3n2C)ccc2[nH]ccc12` [Compound 15, N-[1-methyl-2-(4-methyl-1H-indol-5-yl)pyrrolo[2,3-c]pyridin-5-yl]cyclopropanecarboxamide] the same measures were 103 nM and 101 nM.
On the same counts, the results for `Cc1cc2[nH]ncc2cc1-c1cc2cc(NC(=O)C3CC3)ncc2n1C` [Compound 16, N-(1-methyl-2-(6-methyl-1H-indazol-5-yl)-1H-pyrrolo[2,3-c]pyridin-5-yl)cyclopropanecarboxamide] are 184 nM and 545 nM.
As for `Cc1cc2[nH]cnc2cc1-c1cc2cc(NC(=O)C3CC3)ncc2n1C` [Compound 17, N-[1-methyl-2-(6-methyl-1H-1,3-benzodiazol-5-yl)pyrrolo[2,3-c]pyridin-5-yl]cyclopropanecarboxamide], the 50% inhibitory concentration (IC50) against ABL1 worked out at 59.7 nM; against ABL1 (T315I) it was 160 nM.
With `Cc1c(-c2cc3cc(NC(=O)C4CC4)ncc3n2C)ccc2[nH]ncc12` [Compound 18, N-[1-methyl-2-(4-methyl-1H-indazol-5-yl)pyrrolo[2,3-c]pyridin-5-yl]cyclopropanecarboxamide], the IC50 against ABL1 turned out to be 743 nM; at ABL1 (T315I), 336 nM.
For `Cc1c(-c2cc3cc(NC(=O)C4CC4)ncc3n2C)ccc2[nH]cnc12` [Compound 19, N-[1-methyl-2-(4-methyl-1H-1,3-benzodiazol-5-yl)pyrrolo[2,3-c]pyridin-5-yl]cyclopropanecarboxamide] the same measures were 263 nM and 68.3 nM.
On the same counts, the results for `Cc1cccnc1-c1cc2cc(NC(=O)C3CC3)ncc2n1C` [Compound 20, N-[1-methyl-2-(3-methylpyridin-2-yl)pyrrolo[2,3-c]pyridin-5-yl]cyclopropanecarboxamide] are more than 10000 nM and 999 nM.
On the same counts, the results for `[2H]C([2H])([2H])Oc1ncccc1-c1cc2cc(NC(=O)[C@H]3C[C@H]3F)ncc2n1C` [Compound 33, (1R,2R)-2-fluoro-N-(2-(2-(methoxy-d3)pyridin-3-yl)-1-methyl-1H-pyrrolo[2,3-c]pyridin-5-yl)cyclopropane-1-carboxamide] are 59.5 nM and 183 nM.
For the molecule `CCOc1ncccc1-c1cc2cc(NC(=O)[C@H]3C[C@H]3F)ncc2n1C` [Compound 37, (1R,2R)-N-[2-(2-ethoxypyridin-3-yl)-1-methylpyrrolo[2,3-c]pyridin-5-yl]-2-fluorocyclopropane-1-carboxamide], the half-inhibitory concentration (IC50) on ABL1 came to 35.4 nM; against ABL1 (T315I), 551 nM.
`COc1cccc(F)c1-c1c(C)c2cc(NC(=O)[C@H]3C[C@H]3F)ncc2n1C` [Compound 45, (1R,2R)-2-fluoro-N-[2-(2-fluoro-6-methoxyphenyl)-1,3-dimethylpyrrolo[2,3-c]pyridin-5-yl]cyclopropane-1-carboxamide]: the results for the IC50 at ABL1 and at ABL1 (T315I) were 220 nM and 17.9 nM, respectively.
For the molecule `COc1ncccc1-c1cc2cnc(NC(=O)C3CC3)cc2n1C` [Compound 50, N-[2-(2-methoxypyridin-3-yl)-1-methylpyrrolo[3,2-c]pyridin-6-yl]cyclopropanecarboxamide], the IC50 at ABL1 was 294 nM; at ABL1 (T315I) it was 681 nM.
For the molecule `COc1ccccc1-c1cc2cnc(NC(=O)[C@@H]3C[C@@H]3F)cc2n1C` [Compound 51, (1S,2S)-2-fluoro-N-[2-(2-methoxyphenyl)-1-methylpyrrolo[3,2-c]pyridin-6-yl]cyclopropane-1-carboxamide], the half-inhibitory concentration (IC50) amounted to 88.6 nM at ABL1 and 64.1 nM against ABL1 (T315I).
On the same counts, the results for `COc1cccc(F)c1-c1c(C)c2cnc(NC(=O)[C@H]3C[C@H]3F)cc2n1C` [Compound 55, (1R,2R)-2-fluoro-N-[2-(2-fluoro-6-methoxyphenyl)-1,3-dimethylpyrrolo[3,2-c]pyridin-6-yl]cyclopropane-1-carboxamide] are 71.3 nM and 7.24 nM.
On to `CCn1c(-c2cccnc2OC)cc2cc(NC(=O)[C@@H]3C[C@@H]3F)ncc21` [Compound 63, (1S,2S)-N-(1-ethyl-2-(2-methoxypyridin-3-yl)-1H-pyrrolo[2,3-c]pyridin-5-yl)-2-fluorocyclopropane-1-carboxamide], for which the IC50 against ABL1 is 1430 nM and 1350 nM; at ABL1 (T315I) it was 2670 nM and 4510 nM.
`COc1ncncc1-c1cc2cc(NC(=O)[C@@H]3C[C@@H]3F)ncc2n1C` [Compound 68, (1S,2S)-2-fluoro-N-(2-(4-methoxypyrimidin-5-yl)-1-methyl-1H-pyrrolo[2,3-c]pyridin-5-yl)cyclopropane-1-carboxamide]: the figures for the concentration for half-maximal inhibition (IC50) on ABL1 and at ABL1 (T315I) were 109 nM and 431 nM, respectively.
On the same counts, the results for `COc1cc2ncsc2cc1-c1cc2cc(NC(=O)[C@@H]3C[C@@H]3F)ncc2n1C` [Compound 69, (1S,2S)-2-fluoro-N-[2-(5-methoxy-1,3-benzothiazol-6-yl)-1-methylpyrrolo[2,3-c]pyridin-5-yl]cyclopropane-1-carboxamide] are 20.4 nM and 62.9 nM.
Turning to `COc1cc2nccn2cc1-c1cc2cc(NC(=O)[C@@H]3C[C@@H]3F)ncc2n1C` [Compound 71, (1S,2S)-2-fluoro-N-(2-(7-methoxyimidazo[1,2-a]pyridin-6-yl)-1-methyl-1H-pyrrolo[2,3-c]pyridin-5-yl)cyclopropane-1-carboxamide], the values for the IC50 against ABL1 and at ABL1 (T315I) were 105 nM and 716 nM, respectively.
For `CCNC(=O)Nc1cc2cc(-c3ccccc3OC)n(C)c2cn1` [Compound 77, 3-ethyl-1-[2-(2-methoxyphenyl)-1-methylpyrrolo[2,3-c]pyridin-5-yl]urea] the same measures were 95.9 nM and 148 nM.
With `CCNC(=O)Nc1cc2cc(-c3cccnc3OC)n(C)c2cn1` [Compound 78, 3-ethyl-1-[2-(2-methoxypyridin-3-yl)-1-methylpyrrolo[2,3-c]pyridin-5-yl]urea], the half-inhibitory concentration (IC50) against ABL1 came out at 183 nM; at ABL1 (T315I), 411 nM.
`CCN1CCN(CCNC(=O)Nc2cc3cc(-c4c(OC)ncc(F)c4OC)n(C)c3cn2)CC1` [Compound 84, 1-[2-(4-ethylpiperazin-1-yl)ethyl]-3-[2-(5-fluoro-2,4-dimethoxypyridin-3-yl)-1-methylpyrrolo[2,3-c]pyridin-5-yl]urea]: the values for the half-maximal inhibitory concentration (IC50) at ABL1 and against ABL1 (T315I) were 44.5 nM and 164 nM, respectively.
On the same counts, the results for `COc1ncnc(OC)c1-c1[nH]c2cc(NC(=O)[C@@H]3C[C@@H]3F)ncc2c1C` [Compound 91, (1S,2S)-N-(2-(4,6-dimethoxypyrimidin-5-yl)-3-methyl-1H-pyrrolo[3,2-c]pyridin-6-yl)-2-fluorocyclopropane-1-carboxamide] are 388 nM and 399 nM.
On the same counts, the results for `COc1nc(C(F)F)nc(OC)c1-c1cc2cc(NC(=O)[C@@H]3C[C@@H]3F)ncc2n1C` [Compound 96, (1S,2S)-N-(2-(2-(difluoromethyl)-4,6-dimethoxypyrimidin-5-yl)-1-methyl-1H-pyrrolo[2,3-c]pyridin-5-yl)-2-fluorocyclopropane-1-carboxamide] are 40.4 nM and 207 nM.
On the same counts, the results for `COc1nc(OC)c(-c2cc3cc(NC(=O)[C@@H]4C[C@@H]4F)ncc3n2C)c(OC)n1` [Compound 102, (1S,2S)-2-fluoro-N-(1-methyl-2-(2,4,6-trimethoxypyrimidin-5-yl)-1H-pyrrolo[2,3-c]pyridin-5-yl)cyclopropane-1-carboxamide] are 123 nM and 412 nM.
